According to ChEMBL document CHEMBL3132845, “Design and discovery of 4-anilinoquinazoline ureas as multikinase inhibitors targeting BRAF, VEGFR-2 and EGFR” (Medchemcomm, 2013):

target: Epidermal growth factor receptor (Homo sapiens, UniProt P00533); test: Inhibition of EGFR (unknown origin) after 1 hr by Caliper mobility shift assay
Sequence (P00533 whole entry): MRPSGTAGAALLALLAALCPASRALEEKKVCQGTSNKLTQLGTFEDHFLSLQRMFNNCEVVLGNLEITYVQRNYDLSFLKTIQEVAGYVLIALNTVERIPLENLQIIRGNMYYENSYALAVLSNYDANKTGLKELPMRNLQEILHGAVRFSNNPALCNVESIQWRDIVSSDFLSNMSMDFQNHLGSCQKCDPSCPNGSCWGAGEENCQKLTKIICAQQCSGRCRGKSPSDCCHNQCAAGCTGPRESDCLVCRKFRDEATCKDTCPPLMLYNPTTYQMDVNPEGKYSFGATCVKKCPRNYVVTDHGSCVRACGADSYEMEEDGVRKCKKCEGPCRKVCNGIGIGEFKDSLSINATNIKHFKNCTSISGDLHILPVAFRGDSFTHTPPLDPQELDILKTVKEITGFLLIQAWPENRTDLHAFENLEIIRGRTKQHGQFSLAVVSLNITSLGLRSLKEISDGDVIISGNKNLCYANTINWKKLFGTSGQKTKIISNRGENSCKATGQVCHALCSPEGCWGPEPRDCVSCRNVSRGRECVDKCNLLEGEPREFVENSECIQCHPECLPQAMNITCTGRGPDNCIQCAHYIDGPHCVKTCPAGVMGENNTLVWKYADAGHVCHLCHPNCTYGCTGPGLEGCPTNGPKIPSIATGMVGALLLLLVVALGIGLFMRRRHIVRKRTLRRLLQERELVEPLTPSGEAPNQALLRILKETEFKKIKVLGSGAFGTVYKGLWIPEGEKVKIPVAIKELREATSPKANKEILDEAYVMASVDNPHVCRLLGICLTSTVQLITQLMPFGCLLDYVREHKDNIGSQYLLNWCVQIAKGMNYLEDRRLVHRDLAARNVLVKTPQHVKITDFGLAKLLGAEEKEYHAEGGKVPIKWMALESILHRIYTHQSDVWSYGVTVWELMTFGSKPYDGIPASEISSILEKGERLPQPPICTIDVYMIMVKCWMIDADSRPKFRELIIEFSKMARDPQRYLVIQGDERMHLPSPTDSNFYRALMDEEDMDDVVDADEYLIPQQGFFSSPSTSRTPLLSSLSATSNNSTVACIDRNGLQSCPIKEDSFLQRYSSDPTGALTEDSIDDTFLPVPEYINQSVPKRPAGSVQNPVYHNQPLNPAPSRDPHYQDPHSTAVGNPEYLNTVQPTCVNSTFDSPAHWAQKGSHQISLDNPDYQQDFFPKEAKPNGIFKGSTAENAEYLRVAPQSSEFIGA

Compound	IC50
COc1cc2ncnc(Nc3cccc(NC(=O)Nc4ccc(F)c(Cl)c4)c3)c2cc1OCCCN1CCOCC1	> 10000 nM
COc1cc2ncnc(Nc3cccc(NC(=O)Nc4ccc(Cl)c(C(F)(F)F)c4)c3)c2cc1OCCCN1CCOCC1	82 nM
COc1cc2ncnc(Nc3cccc(NC(=O)Nc4cccc(C)c4)c3)c2cc1OCCCN1CCOCC1	2350 nM
COc1cc2ncnc(Nc3ccc(NC(=O)Nc4ccc(Cl)c(C(F)(F)F)c4)cc3)c2cc1OCCCN1CCOCC1	285 nM

Results, then the molecule that gave them:

IC50	Compound
165 nM	CCN(CCO)CCCOc1ccc2c(Nc3cccc(NC(=O)Nc4ccc(F)c(Cl)c4)c3)ncnc2c1
99 nM	O=C(Nc1cccc(Nc2ncnc3cc(OCCCN4CCN(CCO)CC4)ccc23)c1)Nc1ccc(Cl)c(C(F)(F)F)c1
188 nM	CCN(CCO)CCCOc1ccc2c(Nc3cccc(NC(=O)Nc4ccc(Cl)c(C(F)(F)F)c4)c3)ncnc2c1
3320 nM	O=C(Nc1cccc(Nc2ncnc3cc(OCCCN4CCOCC4)ccc23)c1)Nc1ccc(F)c(Cl)c1

target: T1, Vascular endothelial growth factor receptor 2 (Homo sapiens, UniProt P35968); test: Inhibition of VEGFR2 (unknown origin) after 1 hr by Caliper mobility shift assay
T1 sequence (P35968 whole entry): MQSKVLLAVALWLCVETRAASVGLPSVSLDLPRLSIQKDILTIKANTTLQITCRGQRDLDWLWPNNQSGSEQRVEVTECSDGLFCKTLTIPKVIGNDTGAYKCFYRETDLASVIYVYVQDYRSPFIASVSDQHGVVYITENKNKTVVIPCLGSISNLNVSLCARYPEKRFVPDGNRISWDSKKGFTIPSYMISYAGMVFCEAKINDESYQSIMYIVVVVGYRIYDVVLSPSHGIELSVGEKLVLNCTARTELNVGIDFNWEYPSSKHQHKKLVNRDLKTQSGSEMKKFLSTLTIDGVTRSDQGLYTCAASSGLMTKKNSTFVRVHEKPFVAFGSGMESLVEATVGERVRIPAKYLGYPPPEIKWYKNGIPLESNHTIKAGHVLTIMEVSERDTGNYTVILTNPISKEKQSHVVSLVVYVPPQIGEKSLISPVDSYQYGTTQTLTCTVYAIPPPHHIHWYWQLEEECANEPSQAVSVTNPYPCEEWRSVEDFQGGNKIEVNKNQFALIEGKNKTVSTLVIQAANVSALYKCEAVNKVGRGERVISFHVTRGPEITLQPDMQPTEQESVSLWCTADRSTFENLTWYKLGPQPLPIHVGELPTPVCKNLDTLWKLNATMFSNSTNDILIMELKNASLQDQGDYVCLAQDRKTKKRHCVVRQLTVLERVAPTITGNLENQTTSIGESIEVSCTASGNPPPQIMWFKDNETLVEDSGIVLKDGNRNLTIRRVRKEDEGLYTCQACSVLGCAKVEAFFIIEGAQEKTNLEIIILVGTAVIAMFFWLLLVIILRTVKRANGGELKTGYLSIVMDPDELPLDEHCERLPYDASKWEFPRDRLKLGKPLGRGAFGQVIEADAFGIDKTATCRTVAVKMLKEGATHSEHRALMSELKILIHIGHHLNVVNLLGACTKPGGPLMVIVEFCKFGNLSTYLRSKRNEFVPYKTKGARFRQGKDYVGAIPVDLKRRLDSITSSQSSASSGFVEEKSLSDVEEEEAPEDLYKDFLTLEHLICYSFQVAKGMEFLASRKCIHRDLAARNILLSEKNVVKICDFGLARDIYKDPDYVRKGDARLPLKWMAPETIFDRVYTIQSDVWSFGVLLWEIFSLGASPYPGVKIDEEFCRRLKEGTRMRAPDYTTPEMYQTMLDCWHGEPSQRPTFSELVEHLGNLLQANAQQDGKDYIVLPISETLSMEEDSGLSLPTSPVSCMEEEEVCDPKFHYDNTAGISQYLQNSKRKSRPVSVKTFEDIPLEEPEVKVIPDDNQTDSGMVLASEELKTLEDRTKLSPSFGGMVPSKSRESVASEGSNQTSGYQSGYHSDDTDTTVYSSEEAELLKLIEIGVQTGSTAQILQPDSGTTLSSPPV

Compound	IC50
COc1cc2ncnc(Nc3cccc(NC(=O)Nc4ccc(F)c(Cl)c4)c3)c2cc1OCCCN1CCOCC1	> 10000 nM
COc1cc2ncnc(Nc3cccc(NC(=O)Nc4ccc(Cl)c(C(F)(F)F)c4)c3)c2cc1OCCCN1CCOCC1	213 nM
COc1cc2ncnc(Nc3cccc(NC(=O)Nc4cccc(C)c4)c3)c2cc1OCCCN1CCOCC1	8570 nM
COc1cc2ncnc(Nc3ccc(NC(=O)Nc4ccc(Cl)c(C(F)(F)F)c4)cc3)c2cc1OCCCN1CCOCC1	17 nM

Second part, the molecule after the results:

IC50	Compound
95 nM	CCN(CCO)CCCOc1ccc2c(Nc3cccc(NC(=O)Nc4ccc(F)c(Cl)c4)c3)ncnc2c1
75 nM	O=C(Nc1cccc(Nc2ncnc3cc(OCCCN4CCN(CCO)CC4)ccc23)c1)Nc1ccc(Cl)c(C(F)(F)F)c1
91 nM	CCN(CCO)CCCOc1ccc2c(Nc3cccc(NC(=O)Nc4ccc(Cl)c(C(F)(F)F)c4)c3)ncnc2c1
2170 nM	O=C(Nc1cccc(Nc2ncnc3cc(OCCCN4CCOCC4)ccc23)c1)Nc1ccc(F)c(Cl)c1

target: T1, Vascular endothelial growth factor receptor 2; test: Ratio of sorafenib IC50 to compound IC50 for VEGFR2 (unknown origin) after 1 hr by Caliper mobility shift assay

Compound	Ratio IC50
COc1cc2ncnc(Nc3ccc(NC(=O)Nc4ccc(Cl)c(C(F)(F)F)c4)cc3)c2cc1OCCCN1CCOCC1	3

target: T2, Serine/threonine-protein kinase B-raf (Homo sapiens, UniProt P15056); test: Ratio of sorafenib IC50 to compound IC50 for BRAF (unknown origin) after 1 hr by LanthaScreen assay
T2 sequence (P15056 whole entry): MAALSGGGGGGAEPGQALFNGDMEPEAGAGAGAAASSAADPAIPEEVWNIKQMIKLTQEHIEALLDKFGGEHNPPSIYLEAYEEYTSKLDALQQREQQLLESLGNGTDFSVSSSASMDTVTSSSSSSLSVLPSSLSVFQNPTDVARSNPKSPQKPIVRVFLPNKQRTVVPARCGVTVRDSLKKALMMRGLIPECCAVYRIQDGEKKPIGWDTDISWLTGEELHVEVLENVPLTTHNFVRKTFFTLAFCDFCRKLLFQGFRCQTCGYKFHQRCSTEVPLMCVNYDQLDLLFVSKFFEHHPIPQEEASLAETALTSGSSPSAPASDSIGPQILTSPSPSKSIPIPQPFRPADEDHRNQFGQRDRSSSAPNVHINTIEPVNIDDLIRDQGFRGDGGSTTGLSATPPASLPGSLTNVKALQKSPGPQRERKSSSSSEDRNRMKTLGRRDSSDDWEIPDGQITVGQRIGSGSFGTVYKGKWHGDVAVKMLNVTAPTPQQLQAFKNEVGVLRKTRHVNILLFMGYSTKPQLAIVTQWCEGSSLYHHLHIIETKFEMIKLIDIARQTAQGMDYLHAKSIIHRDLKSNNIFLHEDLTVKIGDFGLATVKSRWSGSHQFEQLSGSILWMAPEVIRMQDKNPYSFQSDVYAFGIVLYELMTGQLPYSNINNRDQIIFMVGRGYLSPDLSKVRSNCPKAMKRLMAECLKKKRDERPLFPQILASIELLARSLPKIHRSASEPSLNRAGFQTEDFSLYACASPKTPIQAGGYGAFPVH

Compound	Ratio IC50
COc1cc2ncnc(Nc3cccc(NC(=O)Nc4ccc(F)c(Cl)c4)c3)c2cc1OCCCN1CCOCC1	4
CCN(CCO)CCCOc1ccc2c(Nc3cccc(NC(=O)Nc4ccc(F)c(Cl)c4)c3)ncnc2c1	5

target: T2, Serine/threonine-protein kinase B-raf; test: Inhibition of BRAF (unknown origin) after 1 hr by LanthaScreen assay

Compound	IC50
COc1cc2ncnc(Nc3cccc(NC(=O)Nc4ccc(F)c(Cl)c4)c3)c2cc1OCCCN1CCOCC1	31 nM
COc1cc2ncnc(Nc3cccc(NC(=O)Nc4ccc(Cl)c(C(F)(F)F)c4)c3)c2cc1OCCCN1CCOCC1	195 nM
COc1cc2ncnc(Nc3cccc(NC(=O)Nc4cccc(C)c4)c3)c2cc1OCCCN1CCOCC1	119 nM
COc1cc2ncnc(Nc3ccc(NC(=O)Nc4ccc(Cl)c(C(F)(F)F)c4)cc3)c2cc1OCCCN1CCOCC1	539 nM

Continued, values first:

IC50	Compound
22 nM	CCN(CCO)CCCOc1ccc2c(Nc3cccc(NC(=O)Nc4ccc(F)c(Cl)c4)c3)ncnc2c1
101 nM	O=C(Nc1cccc(Nc2ncnc3cc(OCCCN4CCN(CCO)CC4)ccc23)c1)Nc1ccc(Cl)c(C(F)(F)F)c1
112 nM	CCN(CCO)CCCOc1ccc2c(Nc3cccc(NC(=O)Nc4ccc(Cl)c(C(F)(F)F)c4)c3)ncnc2c1
72 nM	O=C(Nc1cccc(Nc2ncnc3cc(OCCCN4CCOCC4)ccc23)c1)Nc1ccc(F)c(Cl)c1

target: Serine/threonine-protein kinase B-raf (Homo sapiens, UniProt P15056, V600E); test: Inhibition of BRAF V600E mutant (unknown origin) after 1 hr by LanthaScreen assay
Sequence (P15056 2-766 V600E limits assumed): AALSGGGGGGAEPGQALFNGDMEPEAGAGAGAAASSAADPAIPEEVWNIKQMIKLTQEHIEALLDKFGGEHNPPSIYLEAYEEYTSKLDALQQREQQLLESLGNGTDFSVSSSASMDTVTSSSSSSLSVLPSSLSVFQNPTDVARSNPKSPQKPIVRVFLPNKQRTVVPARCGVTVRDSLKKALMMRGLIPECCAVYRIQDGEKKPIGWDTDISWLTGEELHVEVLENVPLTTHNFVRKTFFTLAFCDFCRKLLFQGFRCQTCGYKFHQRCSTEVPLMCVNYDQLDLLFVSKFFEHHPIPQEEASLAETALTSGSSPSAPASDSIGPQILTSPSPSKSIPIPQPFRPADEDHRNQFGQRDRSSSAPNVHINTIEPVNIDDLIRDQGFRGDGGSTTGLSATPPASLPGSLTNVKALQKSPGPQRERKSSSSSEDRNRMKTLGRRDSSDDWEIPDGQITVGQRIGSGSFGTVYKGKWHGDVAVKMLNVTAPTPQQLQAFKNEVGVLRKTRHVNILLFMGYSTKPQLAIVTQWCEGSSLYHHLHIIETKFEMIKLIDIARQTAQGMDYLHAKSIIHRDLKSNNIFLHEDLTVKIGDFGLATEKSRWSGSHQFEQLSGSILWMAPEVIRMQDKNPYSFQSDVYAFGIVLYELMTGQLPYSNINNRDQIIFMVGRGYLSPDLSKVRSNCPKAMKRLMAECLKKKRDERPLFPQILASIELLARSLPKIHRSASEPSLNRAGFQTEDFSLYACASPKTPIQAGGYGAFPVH

Compound	IC50
COc1cc2ncnc(Nc3cccc(NC(=O)Nc4ccc(F)c(Cl)c4)c3)c2cc1OCCCN1CCOCC1	55 nM
COc1cc2ncnc(Nc3cccc(NC(=O)Nc4ccc(Cl)c(C(F)(F)F)c4)c3)c2cc1OCCCN1CCOCC1	75 nM
COc1cc2ncnc(Nc3cccc(NC(=O)Nc4cccc(C)c4)c3)c2cc1OCCCN1CCOCC1	54 nM
COc1cc2ncnc(Nc3ccc(NC(=O)Nc4ccc(Cl)c(C(F)(F)F)c4)cc3)c2cc1OCCCN1CCOCC1	371 nM

Next, values leading:

IC50	Compound
13 nM	CCN(CCO)CCCOc1ccc2c(Nc3cccc(NC(=O)Nc4ccc(F)c(Cl)c4)c3)ncnc2c1
58 nM	O=C(Nc1cccc(Nc2ncnc3cc(OCCCN4CCN(CCO)CC4)ccc23)c1)Nc1ccc(Cl)c(C(F)(F)F)c1
53 nM	CCN(CCO)CCCOc1ccc2c(Nc3cccc(NC(=O)Nc4ccc(Cl)c(C(F)(F)F)c4)c3)ncnc2c1
42 nM	O=C(Nc1cccc(Nc2ncnc3cc(OCCCN4CCOCC4)ccc23)c1)Nc1ccc(F)c(Cl)c1
